Reference: patent EP0250134B1, “Method for combating swine dysentery” (IMCERA Group Inc., priority 1986, dated 1987)

How the values were obtained:
[1] = tested on: Treponema hyodysenteriae induced swine dysentery; test: Treponema hyodysenteriae induced swine dysentery, lysocellin in feed, 51-day trial, challenge on study day 22; format: in vivo; conditions: for Daily feed / Daily gain / Feed/Gain: infected pigs
From the text: One hundred twenty (120) cross-bred barrows and gilts were used in a randomized complete blocks design to evaluate the effect of lysocellin on Treponema hyodysenteriae induced swine dysentery. The swine were divided into 4 groups: (1) non-infected, non-medicated controls, (2) infected non-medicated controls, (3) infected, medicated at 98.43 grams lysocellin/t (100 g/T), and (4) infected, medicated at 196.85 grams lysocellin/t (200 g/T). All were observed through a 51-day trial period. Swine in groups (2)-(4) were challenged with Treponema hyodysenteriae on study day 22 and the post-challenge period data were analyzed for significant differences. A description of the experimental design is summarized as follows:
Comparisons were made on treatment 1 vs. treatments 3 and 4, treatment 2 vs. treatment 3 and 4, and treatment 3 vs. treatment 4. The following observations were made based upon data analyzed: postchallenge performance of swine with respect to daily gain and daily feed gain, number of pigs per pen expressing clinical signs of dysentery during the postchallenge period, number of pig days per pen with clinical signs of dysentery during the postchallenge period, and number of pig days per pen with specified fecal score.
Referring to table 3 and table 4, clinical signs of dysentery observed during the postchallenge period are presented as treatment means of: number of pigs per pen expressing the sign and number of pig days the sign was observed within a pen. The value "pig days" was based on 28 days/pig surviving to the end of the trial or number of days a pig survived during the postchallenge period (for example, 5 pigs/pen on trial for 28 days equals 140 pig days). Removal of pigs from a pen during the trial was taken into account in these calculations.

Treponema hyodysenteriae = test: in vitro Streak Plate Test Method (inhibition endpoint / MIC on trypticase soy blood agar); format: cell-based; conditions: summary of Table 1
Description: The following test procedure was used to evaluate the anti-Treponema hyodysenteriae activity of the compounds in the present invention. This test procedure establishes the lowest concentration of the compounds that will inhibit the growth on cultures of Treponema hyodysenteriae in an in vitro Streak Plate Test Method.
Procedure: Stock solutions containing 10,000, 1,000, 100, 10, 1.0, and 0.1, micrograms per milliliters of the compound to be tested were prepared. The final dilutions to establish the test concentrations in the media were made by placing the correct volume of stock solution in a petri dish, adding the media (trypticase soy blood agar), and mixing before the media solidified. After the media solidified, the test cultures of Treponema hyodysenteriae were streaked onto the surface of the agar. Petri dishes containing media without test samples were also set up as culture controls and are inoculated in the same manner. All inoculated plates were incubated at 39°C in anaerobic jars for 48 hrs. Inhibition endpoints were then determined by observing the test plates for growth or no growth of the test cultures at the various concentrations of the compounds. If the culture growth occured at one concentration but not at the next higher concentration, the inhibitory endpoint or MIC (Minimum Inhibitory Concentration) was considered the higher concentration.
Referring to Table 1, the culture numbers refer to field isolate strains of Treponema hyodysenteriae. These field isolates were isolated in Illinois, Iowa, and Nebraska. The numbers giving the results in the Table are read as follows: the first number for each isolate and compound tested corresponds to the concentration in micrograms per milliliter where growth occurred and the second number corresponds to the concentration in micrograms per milliliter where no growth occurred.

[2] = 196.85 g/t (200 g/T) lysocellin, mean (lower, higher 95% confidence limits), 5 pigs/pen for 28 days = 140 pig days
[3] = postchallenge period 0-7 days, 98.43 g/t (100 g/T) lysocellin
[4] = postchallenge period 0-7 days, 196.85 g/t (200 g/T) lysocellin
[5] = postchallenge period 0-14 days, 98.43 g/t (100 g/T) lysocellin
[6] = postchallenge period 0-14 days, 196.85 g/t (200 g/T) lysocellin
[7] = postchallenge period 0-21 days, 98.43 g/t (100 g/T) lysocellin
[8] = postchallenge period 0-21 days, 196.85 g/t (200 g/T) lysocellin
[9] = postchallenge period 0-28 days, 98.43 g/t (100 g/T) lysocellin
[10] = postchallenge period 0-28 days, 196.85 g/t (200 g/T) lysocellin

lysocellin
Number of Pig Days per Pen with Clinical Signs of Dysentery During the Postchallenge Period: Gauntness [1, 2]: 11.17 (5.73,18.30) | Number of Pig Days per Pen with Clinical Signs of Dysentery During the Postchallenge Period: Lethargic [1, 2]: 1.82 (0.07,4.74) | Number of Pig Days per Pen with Clinical Signs of Dysentery During the Postchallenge Period: Reddened skin [1, 2]: 1.29 (-0.02,3.41) | Number of Pig Days per Pen with Clinical Signs of Dysentery During the Postchallenge Period: Rough hair coat [1, 2]: 9.55 (2.33,21.19) | Number of Pig Days per Pen with Clinical Signs of Dysentery During the Postchallenge Period: Weak [1, 2]: 0.13 (-0.35,0.94) | mortality ([1]; infected pigs fed lysocellin): prevented mortality | anorexia (clinical sign) ([1]; infected pigs receiving either level of lysocellin, postchallenge period): No pigs receiving lysocellin appeared anorexic | feed efficiency ([1]; pigs receiving lysocellin (either level) vs infected control pigs): superior (P<.05) | cumulative average daily gain ([1]; pigs receiving lysocellin (either level) vs infected nonmedicated pigs, each period (7, 14, 21 and 28 days)): improved (P<.05) over that of nonmedicated pigs | fecal condition (number of pen pig days with a specified fecal condition) ([1]; pigs receiving lysocellin vs infected non-medicated control pigs, postchallenge period (Table 5, not given)): Infected non-medicated control pigs had significantly fewer (P<.05) days of normal feces and more (P<.05) days of water or bloody diarrhea than pigs receiving lysocellin | Daily feed [1, 3]: 1.06 kg/day | Daily gain [1, 3]: 0.35 kg/day | Feed/Gain [1, 3]: 3.21 | Daily feed [1, 4]: 0.94 kg/day | Daily gain [1, 4]: 0.41 kg/day | Feed/Gain [1, 4]: 2.30 | Daily feed [1, 5]: 0.90 kg/day | Daily gain [1, 5]: 0.22 kg/day | Feed/Gain [1, 5]: 4.61 | Daily feed [1, 6]: 1.03 kg/day | Daily gain [1, 6]: 0.35 kg/day | Feed/Gain [1, 6]: 2.99 | Daily feed [1, 7]: 0.89 kg/day | Daily gain [1, 7]: 0.28 kg/day | Feed/Gain [1, 7]: 3.38 | Daily feed [1, 8]: 1.07 kg/day | Daily gain [1, 8]: 0.42 kg/day | Feed/Gain [1, 8]: 2.55 | Daily feed [1, 9]: 0.99 kg/day | Daily gain [1, 9]: 0.33 kg/day | Feed/Gain [1, 9]: 3.01 | Daily feed [1, 10]: 1.15 kg/day | Daily gain [1, 10]: 0.45 kg/day | Feed/Gain [1, 10]: 2.55 | activity compared to the controls (Treponema hyodysenteriae): comparable activity
